Experiments:
[1] = In vivo metabolism and excretion in dogs
HEK293ΔE12 cells = assay: Relative cytotoxicity profiling (% cell number) in the N1ICD imaging assay; type: cell-based; conditions: 24 hours treatment
Method: (§1) HEK293ΔE12 cells (HEK293 cells are engineered to stably express mouse Notch 1 cDNA coding for amino acid 1703-2183, NP_032740.3, with 23 amino acid signal peptide sequence, […] (SEQ ID NO:1), at its N-terminus) are plated at 5000 cells/well in 96 well plates, incubated in Dulbecco's Modified Eagle's Medium-high glucose with 5% fetal bovine serum at 37° C., 5% CO2 for 24 hours. Cells are treated with test compound, dosing at 10 points of 1:3 dilutions across the range of 1000 nM to 0.05 nM, and with final dimethyl sulfoxide (DMSO) concentration at 0.2%. […] Plates are scanned with ACUMEN EXPLORER™ Laser-scanning fluorescence microplate cytometer (TTP LABTECH LTD) to measure total cell nuclear count/well and total nuclear area/well with fluorescence at 655 nm-705 nm (emission of DNA bound propidium iodide) and fluorescence of antibody binding to N1ICD in nuclear region at 505 nm-530 nm. The main assay output is a ratio of total fluorescence of nuclear N1ICD to total nuclear area, the normalized nuclear N1ICD signal. […] Concentration response and the IC50 are determined by curve fitting to a four parameter logistic for the nuclear N1ICD signal, while the % cell number is plotted in the same graph for cytotoxicity profiling.

[2] = Metabolism by liver microsomes optimized for oxidative CYP450 metabolism; type: in vitro ADME
[3] = In vivo pharmacokinetics, excretion and metabolism in rats
Method: Compound 1 was evaluated in vivo in bile-duct cannulated rats to study systemic pharmacokinetics (PK), excretion, and metabolism. In vivo 51% of the IV dose was excreted unchanged, predominately in the urine, with low (2% of parent) systemic exposure to an active N-dealkylated metabolite, 4,4,4-trifluoro-N-[(1S)-1-methyl-2-oxo-2-[[(7S)-6-oxo-5,7-dihydropyrido[2,3-d][3]benzazepin-7-yl]amino]ethyl]butanamide.

[4] = test system: mouse Notch 1 (nuclear N1ICD signal); assay: Notch1 N1ICD Nuclear Accumulation Cellular Imaging Assay; type: cell-based; conditions: HEK293ΔE12 cells, 24 hours treatment, n=7
Method: as §1

N1ICD cleavage (Notch1) = assay: Inhibition of N1ICD cleavage in human tumor cell lines (N1ICD ELISA); type: cell-based; conditions: 24 hours treatment
Text: To evaluate potency of Compound 1 in its ability to inhibit N1ICD cleavage, several human tumor cell lines are utilized. A2780 is a human ovarian cell line (Sigma-Aldrich, No. 93112519); MIA PaCa-2 is a human pancreas cell line (ATCC No. CRL-1420); BxPC-3 is a human pancreas cell line (ATCC No. CRL-1687); SW480 is a human colorectal cell line (ATCC No. CCL-228); HCT 116 is a human colorectal cell line (ATCC No. CCL-247); DLD-1 is a human colorectal cell line (ATCC No. CCL-221); MDA-MB-231 is a human mammary gland cell line (ATCC No. HTB-26); U-87 MG is a human glioblastoma cell line (ATCC No. HTB-14); A375 is a human malignant melanoma cell line (ATCC No. CRL-1619); CCRF-CEM is a human acute lymphoblastic leukemia (ALL) cell line (ATCC No. CCL-119); SUP-T1 is a human T-cell lymphoblastic leukemia cell line (ATCC No. CRL-1942); K-562 is a human chronic myelogenous leukemia (CML) cell line characterized by the presence of a fusion transcript comprised of the Bcr and Abl1 genes (ATCC No. CCL-243); Jurkat, Clone E6-1 is a human acute T-cell leukemia cell line (ATCC No. TIB-152); MOLT-3 is a human acute lymphoblastic leukemia (ALL) cell line (ATCC No. CRL-1552); MOLT-4 is a human acute lymphoblastic leukemia (ALL) cell line (ATCC No. CRL-1582); HEL 92.1.7 is a human erythroleukemia cell line (ATCC No. TIB-180). Each of the cell lines are obtained from the American Type Culture Collection (ATCC) at the ATCC number stated, except the A2780 cell line which is obtained from Sigma-Aldrich at the stated catalog number. The cells are grown in their respective culture media at 37° C. in 5% CO2 with humidity in the atmosphere. Cell culture media for A2780 human ovarian carcinoma is RPMI-1640 (without phenol red) with 2.05 mM L-glutamine, added 2 mM L-glutamine, 0.01 mg/ml insulin and 10% fetal bovine serum (FBS); for HCT 116 human colorectal carcinoma is McCoy's 5A with 1.5 mM L-glutamine, 0.075% Na-bicarbonate and 10% FBS; for SW480 human colorectal carcinoma is RPMI-1640 with 2.05 mM L-glutamine, 20 mM HEPES and 10% FBS; U-87 MG human glioblastoma is Minimal Essential Medium/Earl's Balanced Salt Solution with 2 mM L-glutamine, 0.1 mM Non-essential amino acids (NEAA), 1 mM Na-pyruvate, and 10% FBS; for MIA PaCa-2 human pancreatic carcinoma is Dulbecco's Modified Eagles Medium (DMEM) without Na-pyruvate, with high glucose ([…]), 4 mM L-glutamine, 2.5% horse serum and 10% FBS; for K-562 human CML is DMEM with high glucose ([…]), 4 mM L-glutamine, 10 mM HEPES, 0.1 mM NEAA, 1 mM Na-pyruvate and 10% FBS; for Jurkat, Clone E6-1 human acute T cell leukemia is RPMI-1640 with 2.05 mM L-glutamine, 2.5 g/L glucose, 10 mM HEPES, 1 mM Na-pyruvate, 0.075% Na-bicarbonate and 10% FBS; for A-375 human malignant melanoma and MDA-MB-231 human breast adenocarcinoma is DMEM with high glucose ([…]), 4 mM L-glutamine and 10% FBS; for BxPC-3 human pancreatic adenocarcinoma, DLD-1 human colorectal adenocarcinoma, SUP-T1 human lymphoblastic leukemia, MOLT-3 human ALL, Molt-4 human ALL, CCRF-CEM human ALL, and HEL 92.1.7 human erythroleukemia is RPMI-1640 with 2.05 mM L-glutamine, 2.5 g/L glucose, 20 mM HEPES, 1 mM Na-pyruvate, and 10% FBS. When 80-90% confluent, cells are treated with compound, dosing at 10 points of 1:3 dilutions across the range of 50 nM to 0.0025 nM, and with final dimethyl sulfoxide (DMSO) concentration at 0.01%. […]

[5] = Atropisomer equilibrium in solution (1H NMR and LC-MS); type: physicochemical; conditions: ambient temperature, after 24 hours
Method: In aqueous solutions, 8-9% of atropisomer 2 (minor atropisomer) is detected by ^1H NMR and LC-MS in equilibrium with atropisomer 1 (major atropisomer) at ambient temperature after 24 hours. In organic solvents, at ambient temperature after 24 hours, approximately 1-2% of atropisomer 2 is detected by ^1H NMR and LC-MS in equilibrium with atropisomer 1. Although detectable by ^1H NMR and LC-MS analysis, atropisomer 2 is not isolable.

major CYP450 enzymes = assay: CYP450 inhibition and induction; type: in vitro ADME

major oxidative metabolites in circulation or excreta ([1]; dogs in vivo): not observed
dose excreted unchanged ([3]; bile-duct cannulated rats, IV dose, predominately in the urine): 51%
major oxidative metabolites in circulation or excreta ([3]; rats in vivo): not observed
IC50 [4]: 0.41 nM
IC50 (N1ICD cleavage (Notch1); A2780 cells): 1.03 nM
IC50 (N1ICD cleavage (Notch1); A-375 cells): 0.48 nM
IC50 (N1ICD cleavage (Notch1); BxPC-3 cells): 0.39 nM
IC50 (N1ICD cleavage (Notch1); CCRF-CEM cells): 0.76 nM
IC50 (N1ICD cleavage (Notch1); DLD-1 cells): 0.98 nM
IC50 (N1ICD cleavage (Notch1); HCT 116 cells): 0.72 nM
IC50 (N1ICD cleavage (Notch1); HEL 92.1.7 cells): 0.23 nM
IC50 (N1ICD cleavage (Notch1); Jurkat cells): 5.95 nM
IC50 (N1ICD cleavage (Notch1); K-562 cells): 0.74 nM
IC50 (N1ICD cleavage (Notch1); MDA-MB-231 cells): 0.5 nM
IC50 (N1ICD cleavage (Notch1); MIA PaCa-2 cells): 0.71 nM
IC50 (N1ICD cleavage (Notch1); MOLT-3 cells): 0.61 nM
IC50 (N1ICD cleavage (Notch1); MOLT-4 cells): 0.74 nM
IC50 (N1ICD cleavage (Notch1); SUP-T1 cells): 1.24 nM
IC50 (N1ICD cleavage (Notch1); SW480 cells): 0.1 nM
IC50 (N1ICD cleavage (Notch1); U-87 MG cells): 0.28 nM
atropisomer 2 (minor atropisomer) in equilibrium with atropisomer 1 ([5]; aqueous solutions): 8-9%
atropisomer 2 (minor atropisomer) in equilibrium with atropisomer 1 ([5]; organic solvents): 1-2%
inhibition or induction of the major CYP450 enzymes (major CYP450 enzymes): not an inhibitor or inducer
Compound: C[C@H](NC(=O)CCC(F)(F)F)C(=O)N[C@@H]1C(=O)N(CCO)c2ncccc2-c2ccccc21 [Compound 1, 4,4,4-trifluoro-N-[(1S)-2-[[(7S)-5-(2-hydroxyethyl)-6-oxo-7H-pyrido[2,3-d][3]benzazepin-7-yl]amino]-1-methyl-2-oxo-ethyl]butanamide]
clearance by excretion of parent compound ([1]; bile-duct intact dogs): appreciable clearance by excretion of parent compound
major circulating active metabolites ([1]; bile-duct intact dogs): absence of major circulating active metabolites
concentration up to which cell number is not affected (cytotoxicity profiling) (HEK293ΔE12 cells): > 1000 nM
metabolism by liver microsomes [2]: not metabolized to any appreciable extent
additional circulating metabolites (profiling of rat plasma) ([3]; rat plasma): absence of additional circulating metabolites

From patent US8569286B2, “Notch pathway signaling inhibitor compound” (Eli Lilly and Company, priority 2011, dated 2013)
